# Assay results as given in patent US8835659B2, “Polysubstituted benzofurans and medicinal applications thereof” (Ikerchem, S.L., priority 2010, dated 2014).
# pIC50: −log10 of the molar value.
# Target: human SIRT1 (Homo sapiens (Human), UniProt Q96EB6)
# Assay: SIRT1 in vitro deacetylation assay (Fluor-de-Lys, acetylated AMC-labeled p53 peptide)
# Format: biochemical
# Settings: 50 μM substrate peptide, 500 μM NAD+, 30° C., 2 h; for pIC50: concentration reducing enzyme activity by 50%, read-out: IC50 (SIRT1 inhibitors); for Emax: SIRT1 activation, read-out: Max (%), percentage of maximum activation achieved; for EC1.5 (concentration raising enzyme activity by 50%): concentration required to increase the enzyme activity by 50%, read-out: EC1.5 (SIRT1 activators)
# Description: The inhibitory activity is measured as the concentration of compound required to reduce the enzyme activity by 50% (IC50).
# Activation in this assay is measured both as the concentration of compound required to increase the enzyme activity by 50% (EC1.5) as well as by the percentage of maximum activation achieved (Max %) (see, FIG. 1).
# The reactions were carried out in a 96-well microplate for fluorometry in a 50 μl reaction volume. After the deacetylation reaction, Fluor-de-Lys-Developer II (BioMol. Cat. #KI-176) was added to each well to digest the deacetylated substrate, thus producing the fluorescent signal. The reaction was allowed to develop for 45 minutes at 30° C. with 5% CO2; then the fluorescent signal was measured with an excitation wavelength at 360 nm and an emission wavelength at 460 nm in a microplate-reading fluorometer (GeminiXS; Molecular Devices, Sunnyvale, Calif.). […] All experiments were performed in triplicate.
# Chain of human SIRT1 (Q96EB6 whole entry): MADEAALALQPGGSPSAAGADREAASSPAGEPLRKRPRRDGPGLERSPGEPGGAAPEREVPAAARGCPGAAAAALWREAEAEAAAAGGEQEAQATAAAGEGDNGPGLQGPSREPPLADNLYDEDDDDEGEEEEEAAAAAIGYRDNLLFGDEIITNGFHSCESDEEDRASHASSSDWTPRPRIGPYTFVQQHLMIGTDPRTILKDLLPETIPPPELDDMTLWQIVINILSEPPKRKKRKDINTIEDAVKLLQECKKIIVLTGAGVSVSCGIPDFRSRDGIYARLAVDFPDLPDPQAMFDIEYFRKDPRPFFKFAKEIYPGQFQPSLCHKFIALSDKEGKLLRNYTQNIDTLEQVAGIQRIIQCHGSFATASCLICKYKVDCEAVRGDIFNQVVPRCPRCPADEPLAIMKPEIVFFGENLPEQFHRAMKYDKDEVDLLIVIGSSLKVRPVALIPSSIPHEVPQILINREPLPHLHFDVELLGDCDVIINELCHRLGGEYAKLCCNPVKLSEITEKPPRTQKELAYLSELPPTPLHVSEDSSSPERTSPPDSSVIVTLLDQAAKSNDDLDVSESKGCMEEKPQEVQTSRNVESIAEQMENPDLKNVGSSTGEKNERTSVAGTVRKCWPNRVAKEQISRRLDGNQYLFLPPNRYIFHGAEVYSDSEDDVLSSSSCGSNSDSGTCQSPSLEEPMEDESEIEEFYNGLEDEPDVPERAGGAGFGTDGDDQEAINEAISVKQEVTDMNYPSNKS
pIC50,Emax,EC1.5 (concentration raising enzyme activity by 50%),Compound
3.56,–,–,"Oc1cc(O)c2c(-c3cc(F)cc(F)c3)coc2c1 [Example 16, 3-(3,5-difluorophenyl)-1-benzofuran-4,6-diol]"
–,279%,13.5 nM,"Oc1cc(O)c2cc(-c3ccc(F)cc3)oc2c1 [Example 10, 2-(4-fluorophenyl)-1-benzofuran-4,6-diol]"
–,444%,3.55 nM,"Oc1ccc(-c2cc3c(O)cc(O)cc3o2)cc1 [Example 9, 2-(4-hydroxyphenyl)-1-benzofuran-4,6-diol]"
4.64,–,–,"Oc1ccc(-c2coc3cc(O)cc(O)c23)cc1 [Example 15, 3-(4-hydroxyphenyl)-1-benzofuran-4,6-diol]"
3.72,–,–,"Oc1cc(O)c2c(-c3ccc(F)cc3)coc2c1 [Example 19, 3-(4-fluorophenyl)benzofuran-4,6-diol]"
4.12,–,–,"Oc1cc(O)c2c(-c3cc(F)cc(F)c3)c(Br)oc2c1 [Example 20, 2-bromo-3-(3,5-difluorophenyl)benzofuran-4,6-diol]"
–,130%,–,"COc1ccc(-c2cc3c(O)cc(O)cc3o2)c(OC)n1 [Example 12, 2-(2,6-dimethoxypyridin-3-yl)benzofuran-4,6-diol]"
4.44,–,–,"Oc1cc(O)c2cc(-c3cc(F)cc(F)c3)oc2c1 [Example 13, 2-(3,5-difluorophenyl)benzofuran-4,6-diol]"
–,407%,1.32 nM,"Oc1cc(O)cc(-c2cc3c(O)cc(O)cc3o2)c1 [Example 8, 2-(3,5-dihydroxyphenyl)-1-benzofuran-4,6-diol]"
–,475%,–,"Oc1ccc(C=Cc2cc(O)cc(O)c2)cc1 [Resveratrol, resveratrol, reference compound]"
–,451%,11.5 nM,"Oc1cc(O)cc(-c2cc3ccc(O)cc3o2)c1 [5-(6-hydroxy-1-benzofuran-2-yl)benzene-1,3-diol, reference compound]"
5.74,–,–,"Oc1cc(O)c2cc(-c3cc(O)c(O)c(O)c3)oc2c1 [Example 11, 5-(4,6-dihydroxy-1-benzofuran-2-yl)benzene-1,2,3-triol]"
